Entries after “also recorded” stand apart in the source; their conditions may differ.
Experiments:
HDAC2 = molecular target: T1, HDAC2 (Homo sapiens, UniProt Q92769); assay: Individualized HDAC assay, HDAC2; assay type: biochemical; settings: purified enzyme, 5 to 0.02 μM
T1 construct: purchased BPS Biosciences
Description: The activity of the curcuphenol analogues was assessed with purified HDAC enzymes from all classes I, II, and IV, as well as a select member of HDAC class III (SIRT1). HDACs 1-9 and SIRT1 were evaluated using HDAC Fluorogenic Assay Kits (BPS Biosciences). All assays were completed in black-sided clear-bottom 96 well plates (PerkinElmer), and all treatments were plated in triplicates. Treatment started at 5 μM and was two-fold diluted to a concentration 0.02 μM. The assays were measured using the Synergy HI hybrid reader (BioTek) and Gen5 software (BioTek), excitation was set to 360 nm and detection was measured at 450 nm with a gain of 100. […] Luminescence was read 30 minutes after HDAC-Glo™I/II reagent was added using the Synergy HI hybrid reader (BioTek) and Gen5 software (Bio-Tek). […] The relative mean of activity of the HDAC being measured was determined and all wells that received treatment were divided this average, to give a percentage of activity.
To evaluate the effect of the compounds on specific HDACs, their activity was assessed with purified HDAC enzymes from all classes I, II, and IV, as well as a select member of HDAC class III (SIRT1). HDACs 1-9 and SIRT1 were evaluated using HDAC Fluorogenic Assay Kits (BPS Biosciences) following the manufacturer's recommendations. […] The assays were measured using the Synergy HI hybrid reader (BioTek) and Gen5 software (Bio-Tek). […]

HDAC6 = molecular target: T2, HDAC6 (Homo sapiens, UniProt Q9UBN7); assay: Individualized HDAC assay, HDAC6; assay type: biochemical; settings: purified enzyme, 5 to 0.02 μM
T2 construct: purchased BPS Biosciences
T2 sequence (Q9UBN7 1-1215): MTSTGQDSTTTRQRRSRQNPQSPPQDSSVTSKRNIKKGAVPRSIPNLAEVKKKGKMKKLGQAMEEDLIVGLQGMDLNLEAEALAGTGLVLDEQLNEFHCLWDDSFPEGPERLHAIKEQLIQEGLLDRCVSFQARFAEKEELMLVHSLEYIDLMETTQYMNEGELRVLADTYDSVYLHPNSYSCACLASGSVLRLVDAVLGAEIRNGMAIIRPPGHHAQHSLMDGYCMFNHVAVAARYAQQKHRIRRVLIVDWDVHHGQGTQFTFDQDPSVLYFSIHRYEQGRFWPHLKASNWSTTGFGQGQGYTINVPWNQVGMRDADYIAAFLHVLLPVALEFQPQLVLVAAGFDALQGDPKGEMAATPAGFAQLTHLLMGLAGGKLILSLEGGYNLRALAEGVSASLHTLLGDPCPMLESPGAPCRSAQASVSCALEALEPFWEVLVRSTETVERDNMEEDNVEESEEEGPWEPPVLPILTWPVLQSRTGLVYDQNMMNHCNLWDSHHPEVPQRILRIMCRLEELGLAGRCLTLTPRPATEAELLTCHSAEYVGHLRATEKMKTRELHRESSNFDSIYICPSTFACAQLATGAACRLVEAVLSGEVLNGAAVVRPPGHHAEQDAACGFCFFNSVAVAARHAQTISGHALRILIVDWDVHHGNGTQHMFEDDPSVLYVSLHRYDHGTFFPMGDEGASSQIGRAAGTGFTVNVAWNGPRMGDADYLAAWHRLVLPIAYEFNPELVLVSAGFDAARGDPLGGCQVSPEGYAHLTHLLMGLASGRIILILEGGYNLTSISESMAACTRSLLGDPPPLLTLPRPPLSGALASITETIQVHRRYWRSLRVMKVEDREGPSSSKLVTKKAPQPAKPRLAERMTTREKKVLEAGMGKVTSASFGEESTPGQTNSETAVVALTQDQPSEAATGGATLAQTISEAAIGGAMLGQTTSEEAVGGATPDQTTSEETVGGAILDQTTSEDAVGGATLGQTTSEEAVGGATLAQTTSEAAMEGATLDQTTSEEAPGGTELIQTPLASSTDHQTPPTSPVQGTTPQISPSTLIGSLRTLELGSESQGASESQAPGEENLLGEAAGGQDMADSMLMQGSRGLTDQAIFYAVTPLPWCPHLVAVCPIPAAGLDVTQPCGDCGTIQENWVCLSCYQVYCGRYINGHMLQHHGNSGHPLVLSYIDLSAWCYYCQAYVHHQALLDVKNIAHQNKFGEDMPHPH
Description: The activity of the curcuphenol analogues was assessed with purified HDAC enzymes from all classes I, II, and IV, as well as a select member of HDAC class III (SIRT1). HDACs 1-9 and SIRT1 were evaluated using HDAC Fluorogenic Assay Kits (BPS Biosciences). All assays were completed in black-sided clear-bottom 96 well plates (PerkinElmer), and all treatments were plated in triplicates. Treatment started at 5 μM and was two-fold diluted to a concentration 0.02 μM. The assays were measured using the Synergy HI hybrid reader (BioTek) and Gen5 software (BioTek), excitation was set to 360 nm and detection was measured at 450 nm with a gain of 100. Alternatively HDAC 10 and 11 (BPS Biosciences) were optimized for HDAC concentration using the HDAC-Glo™ I/II Assay and Screening System (Promega). Following optimization each HDAC was run following the Promega protocol in black-sided clear-bottomed 96 well plates in triplicates with same treatments listed above (PerkinElmer). Luminescence was read 30 minutes after HDAC-Glo™I/II reagent was added using the Synergy HI hybrid reader (BioTek) and Gen5 software (Bio-Tek). […] To calculate percent activity, the average of blank wells was subtracted from all treatment groups. The relative mean of activity of the HDAC being measured was determined and all wells that received treatment were divided this average, to give a percentage of activity.
To evaluate the effect of the compounds on specific HDACs, their activity was assessed with purified HDAC enzymes from all classes I, II, and IV, as well as a select member of HDAC class III (SIRT1). HDACs 1-9 and SIRT1 were evaluated using HDAC Fluorogenic Assay Kits (BPS Biosciences) following the manufacturer's recommendations. Compound treatment started at 5 μM and was two-fold diluted to a concentration 0.02 μM. […] The assays were measured using the Synergy HI hybrid reader (BioTek) and Gen5 software (Bio-Tek). […] To calculate the fold change in HDAC activity, the values from each treated well were divided by the relative mean of activity of the specific HDAC being measured.

T1 sequence (Q92769 whole entry): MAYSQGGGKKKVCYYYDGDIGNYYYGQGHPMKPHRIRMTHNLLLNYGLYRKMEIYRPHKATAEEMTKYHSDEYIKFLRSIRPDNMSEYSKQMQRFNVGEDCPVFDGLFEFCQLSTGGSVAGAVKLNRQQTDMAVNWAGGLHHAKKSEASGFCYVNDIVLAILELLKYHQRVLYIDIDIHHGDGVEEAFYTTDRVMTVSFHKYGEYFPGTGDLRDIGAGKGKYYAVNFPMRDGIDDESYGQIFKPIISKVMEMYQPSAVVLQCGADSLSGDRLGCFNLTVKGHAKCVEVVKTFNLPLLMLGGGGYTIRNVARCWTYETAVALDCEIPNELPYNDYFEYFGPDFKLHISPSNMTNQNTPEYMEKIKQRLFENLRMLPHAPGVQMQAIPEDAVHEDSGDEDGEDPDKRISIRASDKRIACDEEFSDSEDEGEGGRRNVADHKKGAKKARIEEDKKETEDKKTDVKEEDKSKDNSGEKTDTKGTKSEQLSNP

| Structure (SMILES) | HDAC2 activity (HDAC2) | HDAC6 activity (HDAC6) | HDAC6 activity (HDAC6; listed as PO-3-97-1) |
| --- | --- | --- | --- |
| CC(C)=CCCCc1ccc(C)cc1O [P02-113] | no significant change in HDAC activity | no change in activity; also recorded: did not affect the activity; also recorded: unaffected | – |
| COc1ccc(C(C)CCC=C(C)C)c(O)c1 (centres unmarked) [P03-97-1] | no significant change in HDAC activity | no change in activity; also recorded: unaffected | did not affect the activity |

Reference: US20220105051A1, “COMPOUNDS FOR INCREASING MHC-I EXPRESSION AND MODULATING HISTONE DEACETYLASE ACTIVITY” (Cava Healthcare Inc., priority 2019, published 2022)
